Measured values published in patent US6703424B2, “Dispersible compositions containing L-DOPA ethyl ester” (Teva Pharmaceutical Industries, Ltgd., priority 1998, dated 2004).

Assays:
Type in all cases: physicochemical
[1] = Dissolution test for L-DOPA ethyl ester/carbidopa dispersible tablets in water (USP dissolution apparatus, HPLC-UV); details: 100 ml purified water, room temperature, paddles 200 rpm
Experimental: The dissolution of L-DOPA ethyl ester and carbidopa dispersible tablets was measured in water at room temperature according to the following methodology which was designed to simulate the administration of these tablets to patients. The recommended use is to place a tablet (384 mg) for a few seconds in about 100 mls of water, and to dissolve while swirling or stirring. The suspension should be drunk within 30 minutes. In order to automate the measurement, a USP 6-Pot Dissolution Apparatus is used. Each of 6 tablets are dissolved in 100 ml of purified water in a 200 ml vessel at room temperature (23±2° C.). This is the minimum volume which may be used with the USP Dissolution Apparatus. The solutions are stirred with paddles rotating at 200 rpm, which simulates the turbulence caused when the solution is stirred in a cup, with a teaspoon. […] In this experiment specifically, the amount of L-DOPA ethyl ester or carbidopa is determined by using a 10 cm C18 column, based on 3 μ-diameter spherical silica particles with 100 Å pore size. The elution solvents comprise a gradient of acetonitrile and phosphate buffer with ion-pairing reagent (at pH 2.7). The detection technique is ultraviolet absorption at 280 nm, the wavelength of maximum absorption for both L-DOPA ethyl ester and Carbidopa.

[2] = Stability of L-DOPA ethyl ester composition on incubation at 40° C.; details: after incubation for 6 months at 40° C.
[3] = L-DOPA ethyl ester degradation in solution and tablets, measured as level of L-DOPA over six months; details: oral solution acidified with HCl
Experimental: A comparison of L-DOPA ethyl ester (LDEE) degradation in LDEE oral solution (4° C.), and in two environmental conditions of LDEE and Carbidopa dispersible tablets (at 25° C./60% RH and at 40° C./75% RH), was performed by measuring the change in levels of L-DOPA in samples over a six month period of time. L-DOPA is the main degradation product of L-DOPA ethyl ester. Elevation in the level of L-DOPA indicates degradation of LDEE.
The change in the level of L-DOPA with time, expressed as percent of the concentration of LDEE in the sample, was determined in LDEE and Carbidopa Dispersible Tablets (Formulation V, packed in aluminum blisters) and in LDEE oral solution (packed in PET bottles). The composition of the solution was (per 1 ml): 57.1 mg LDEE, 1.2 mg Methylparaben, 1.6 mg Saccharin sodium, 0.1 mg Edetate disodium and cherry flavor. The solution was acidified with HCl to pH 4.0, in which the stability of LDEE is maximal. The solution was kept in refrigeration (4° C.) while the tablets were kept at room conditions (25° C. and 60% relative humidity) or in accelerated stability conditions (40° C. and 75% relative humidity). The results are shown below in Table 4 and in FIG. 4: […]

Compound | Percentage of Dissolution ([1]; 1 minute) [%] | Percentage of Dissolution ([1]; 2 minutes) [%] | Percentage of Dissolution ([1]; 5 minutes) [%] | L-DOPA ethyl ester content remaining [2] | pH at which the stability of LDEE is maximal [3]
C[C@@](Cc1ccc(O)c(O)c1)(NN)C(=O)O [Carbidopa, reference compound] | 64.3 | 87.6 | 101.4 |  | 
CCOC(=O)[C@@H](N)Cc1ccc(O)c(O)c1 [L-DOPA Ethyl Ester, L-DOPA ethyl ester] | 67.2 | 90.1 | 102.7 | at least 97 % by weight of the active ingredient | 4.0
